Reference: the Kinase Knowledgebase extract (Sharma et al. 2016)

Biological target: CDK2 (human) (UniProt P24941)
Assay: Enzyme Assay
Details: concentration not given here

inhibition	Compound
64%	Nc1nc(NC2CCN(C(=O)CN3C(=O)CSC3=S)CC2)sc1C(=O)c1c(F)cccc1F
-10%	Nc1nc(NC2CCN(C(=O)COc3cc(Cl)c(Cl)cc3Cl)CC2)sc1C(=O)c1c(F)cccc1F
-28%	CCCCOc1ccc(C(C)(C)CC(C)(C)C)cc1S(=O)(=O)N1CCC(Nc2nc(N)c(C(=O)c3c(F)cccc3F)s2)CC1
47%	Nc1nc(NC2CCN(C(=O)c3ccc(CO)cc3)CC2)sc1C(=O)c1c(F)cccc1F
85%	CC/C=C\CC(=O)N1CCC(Nc2nc(N)c(C(=O)c3c(F)cccc3F)s2)CC1
-24%	COC(=O)CC(=O)N1CCC(Nc2nc(N)c(C(=O)c3c(F)cccc3F)s2)CC1
63%	Nc1nc(NC2CCN(C(=O)CCC(=O)c3cccs3)CC2)sc1C(=O)c1c(F)cccc1F
6%	CCCN(CCC)[C@@H](C)C(=O)N1CCC(Nc2nc(N)c(C(=O)c3c(F)cccc3F)s2)CC1
-7%	CN(C(=O)N1CCC(Nc2nc(N)c(C(=O)c3c(F)cccc3F)s2)CC1)c1ccccc1
55%	COc1ccc(CC(=O)N2CCC(Nc3nc(N)c(C(=O)c4c(F)cccc4F)s3)CC2)cc1OC
61%	Nc1nc(NC2CCN(C(=O)c3cnc4ccccc4n3)CC2)sc1C(=O)c1c(F)cccc1F
54%	CO[C@@H](C(=O)N1CCC(Nc2nc(N)c(C(=O)c3c(F)cccc3F)s2)CC1)c1ccccc1
46%	CC/C=C/CC(=O)N1CCC(Nc2nc(N)c(C(=O)c3c(F)cccc3F)s2)CC1
-11%	[N-]=[N+]=C1C=C(S(=O)(=O)N2CCC(Nc3nc(N)c(C(=O)c4c(F)cccc4F)s3)CC2)c2ccccc2C1=O
58%	Nc1nc(NC2CCN(C(=O)Cc3sc(O)nc3O)CC2)sc1C(=O)c1c(F)cccc1F
48%	Nc1nc(NC2CCN(C(=O)c3ccc(F)c(Cl)c3)CC2)sc1C(=O)c1c(F)cccc1F
61%	Nc1nc(NC2CCN(C(=O)c3ccc(-n4cccc4)nc3)CC2)sc1C(=O)c1c(F)cccc1F
22%	CCCC/C=C/CC(=O)N1CCC(Nc2nc(N)c(C(=O)c3c(F)cccc3F)s2)CC1
46%	Nc1nc(NC2CCN(C(=O)c3ccc[n+]([O-])c3)CC2)sc1C(=O)c1c(F)cccc1F
0%	Nc1nc(NC2CCN(C(=O)c3ccc(C(F)(F)F)cc3C(F)(F)F)CC2)sc1C(=O)c1c(F)cccc1F
51%	Cc1ccc(OCC(=O)N2CCC(Nc3nc(N)c(C(=O)c4c(F)cccc4F)s3)CC2)c(C)c1
38%	COCCOCCOCC(=O)N1CCC(Nc2nc(N)c(C(=O)c3c(F)cccc3F)s2)CC1
48%	CCCCC(=O)N1CCC(Nc2nc(N)c(C(=O)c3c(F)cccc3F)s2)CC1
38%	Nc1nc(NC2CCN(C(=O)CCCc3ccccc3)CC2)sc1C(=O)c1c(F)cccc1F
-12%	Nc1nc(NC2CCN(C(=O)OCC3c4ccccc4-c4ccccc43)CC2)sc1C(=O)c1c(F)cccc1F
42%	CC[C@H](C(=O)N1CCC(Nc2nc(N)c(C(=O)c3c(F)cccc3F)s2)CC1)c1ccccc1
59%	Nc1nc(NC2CCN(C(=O)Cc3ccc(O)c(F)c3)CC2)sc1C(=O)c1c(F)cccc1F
64%	CC(=O)Nc1cc(C(=O)N2CCC(Nc3nc(N)c(C(=O)c4c(F)cccc4F)s3)CC2)ccc1C

inhibition	Compound
16%	Cc1nn(C)c2ncc(C(=O)N3CCC(Nc4nc(N)c(C(=O)c5c(F)cccc5F)s4)CC3)c(Cl)c12
45%	CCCC[C@H]1CC[C@H](C(=O)N2CCC(Nc3nc(N)c(C(=O)c4c(F)cccc4F)s3)CC2)CC1
51%	Nc1nc(NC2CCN(C(=O)Cc3cccc4ccccc34)CC2)sc1C(=O)c1c(F)cccc1F
27%	COc1ccccc1C(O)C(=O)N1CCC(Nc2nc(N)c(C(=O)c3c(F)cccc3F)s2)CC1 (stereo not given)
-8%	Nc1nc(NC2CCN(S(=O)(=O)c3c(F)cccc3F)CC2)sc1C(=O)c1c(F)cccc1F
57%	COc1ccc(OC)c(CC(=O)N2CCC(Nc3nc(N)c(C(=O)c4c(F)cccc4F)s3)CC2)c1
68%	C=CCCC(=O)N1CCC(Nc2nc(N)c(C(=O)c3c(F)cccc3F)s2)CC1
51%	Nc1nc(NC2CCN(C(=O)C(O)c3ccccc3Cl)CC2)sc1C(=O)c1c(F)cccc1F (stereo not given)
-43%	CCN(CC)C(=O)N1CCC(Nc2nc(N)c(C(=O)c3c(F)cccc3F)s2)CC1
38%	Nc1nc(NC2CCN(C(=O)COc3cccc(C=O)c3)CC2)sc1C(=O)c1c(F)cccc1F
52%	Nc1nc(NC2CCN(C(=O)C(O)c3cc(F)cc(F)c3)CC2)sc1C(=O)c1c(F)cccc1F (stereo not given)
41%	N#Cc1ccc(/C=C/C(=O)N2CCC(Nc3nc(N)c(C(=O)c4c(F)cccc4F)s3)CC2)cc1
80%	Cc1cc(F)ccc1OCC(=O)N1CCC(Nc2nc(N)c(C(=O)c3c(F)cccc3F)s2)CC1
-23%	Nc1nc(NC2CCN(S(=O)(=O)c3cccc([N+](=O)[O-])c3)CC2)sc1C(=O)c1c(F)cccc1F
61%	Nc1cccc(CC(=O)N2CCC(Nc3nc(N)c(C(=O)c4c(F)cccc4F)s3)CC2)c1
34%	Cc1ccc(C)c(/C=C/C(=O)N2CCC(Nc3nc(N)c(C(=O)c4c(F)cccc4F)s3)CC2)c1
-2%	Nc1nc(NC2CCN(C(=O)C3CC3)CC2)sc1C(=O)c1c(F)cccc1F
71%	CCOc1ccccc1CC(=O)N1CCC(Nc2nc(N)c(C(=O)c3c(F)cccc3F)s2)CC1
66%	Nc1nc(NC2CCN(C(=O)Cc3c[nH]c4ccc(F)cc34)CC2)sc1C(=O)c1c(F)cccc1F
59%	COc1cc(C)ccc1C(=O)N1CCC(Nc2nc(N)c(C(=O)c3c(F)cccc3F)s2)CC1
-1%	Nc1nc(NC2CCN(C(=O)C3(c4ccc(Cl)cc4)CC3)CC2)sc1C(=O)c1c(F)cccc1F
57%	Nc1nc(NC2CCN(C(=O)C(O)c3cc(F)ccc3F)CC2)sc1C(=O)c1c(F)cccc1F (stereo not given)
15%	CCC(=O)C(=O)N1CCC(Nc2nc(N)c(C(=O)c3c(F)cccc3F)s2)CC1
23%	Nc1nc(NC2CCN(C(=O)CSc3ccncc3)CC2)sc1C(=O)c1c(F)cccc1F
66%	Nc1nc(NC2CCN(C(=O)Cc3ccccc3)CC2)sc1C(=O)c1c(F)cccc1F
-16%	Nc1nc(NC2CCN(S(=O)(=O)c3ccc(O)c(C(=O)O)c3)CC2)sc1C(=O)c1c(F)cccc1F
65%	CSCCC(O)C(=O)N1CCC(Nc2nc(N)c(C(=O)c3c(F)cccc3F)s2)CC1 (stereo not given)
